Active and inactive are the calls of the source.
What was measured:
[1] = alpha-synuclein stem-loop luciferase translation blockers – H4 neuroglioma cells, luminescence, confirmation (AID 1988); format: functional, cell-based
[2] = tested on: HT-1080; assay: HT1080 cell viability loss – fluorescence readout (AID 620); format: functional, cell-based; conditions: Homo sapiens
[3] = Luminescence Cell-Based Dose Response HTS to Identify Inhibitors of 5'UTR Stem-Loop Driven Prion Protein mRNA Translation in H4 Neuroglioblastoma Cells. [Related pubchem assays: 1827 (Project Summary), 1813 (Primary HTS)]; format: functional
[4] = molecular target: T1, Ubiquitin-conjugating enzyme E2 N (Homo sapiens, UniProt P61088); format: functional;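 further: Dose-response confirmation in a TR-FRET assay detecting UBC13-driven polyubiquitin chain formation, inhibition measured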
T1 sequence (P61088 whole entry): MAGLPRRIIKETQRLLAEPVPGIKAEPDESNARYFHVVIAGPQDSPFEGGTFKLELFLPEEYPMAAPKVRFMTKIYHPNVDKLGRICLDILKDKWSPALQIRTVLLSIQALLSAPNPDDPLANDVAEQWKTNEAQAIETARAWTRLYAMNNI

[5] = luciferase reporter signal suppression in cells – H4 neuroglioma cells, luminescence, dose response (AID 1990); format: functional, cell-based
[6] = molecular target: Luciferin 4-monooxygenase (Photinus pyralis, UniProt P08659); assay: Counter Screen for Luciferase-based Assay Positives. [Related pubchem assays: 620, 618, 411 ]
Sequence of Luciferin 4-monooxygenase (P08659 whole entry): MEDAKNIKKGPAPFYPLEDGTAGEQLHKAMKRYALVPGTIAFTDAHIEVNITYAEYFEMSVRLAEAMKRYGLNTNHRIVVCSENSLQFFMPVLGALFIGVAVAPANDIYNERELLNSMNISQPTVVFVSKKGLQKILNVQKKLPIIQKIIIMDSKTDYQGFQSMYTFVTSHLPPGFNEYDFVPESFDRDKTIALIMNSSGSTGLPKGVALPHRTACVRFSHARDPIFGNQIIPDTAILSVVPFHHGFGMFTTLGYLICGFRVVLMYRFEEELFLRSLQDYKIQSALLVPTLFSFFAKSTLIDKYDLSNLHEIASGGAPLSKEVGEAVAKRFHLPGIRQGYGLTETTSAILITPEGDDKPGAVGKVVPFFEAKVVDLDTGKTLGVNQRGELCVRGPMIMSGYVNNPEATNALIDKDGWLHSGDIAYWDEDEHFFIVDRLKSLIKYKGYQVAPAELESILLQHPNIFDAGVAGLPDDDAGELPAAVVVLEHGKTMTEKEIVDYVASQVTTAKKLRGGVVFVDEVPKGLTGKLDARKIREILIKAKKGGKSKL

[7] = tested on: HEK293; assay: EBV LMP1 TES2 canonical NF-kB signalling blockers – cell-based, HEK293, luciferase, cherry-pick, dose response (AID 588343); format: functional; conditions: Homo sapiens
[8] = molecular target: Glyceraldehyde-3-phosphate dehydrogenase (Homo sapiens, UniProt P04406)
Sequence of Glyceraldehyde-3-phosphate dehydrogenase (P04406 whole entry): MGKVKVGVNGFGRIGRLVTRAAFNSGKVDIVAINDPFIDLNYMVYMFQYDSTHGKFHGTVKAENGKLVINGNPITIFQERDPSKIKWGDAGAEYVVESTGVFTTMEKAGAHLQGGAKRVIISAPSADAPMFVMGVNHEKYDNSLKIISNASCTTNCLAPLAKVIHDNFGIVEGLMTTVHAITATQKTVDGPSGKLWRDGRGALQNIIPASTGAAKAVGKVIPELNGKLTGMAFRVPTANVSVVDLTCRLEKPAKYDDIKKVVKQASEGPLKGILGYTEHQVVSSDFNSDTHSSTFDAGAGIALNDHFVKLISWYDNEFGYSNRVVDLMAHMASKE

[9] = HEK-293T cell viability reduction – luminescence, B-cell screen hits, cytotoxicity control for BCR NF-kB inhibitor project, dose response (AID 489021); format: functional, cell-based;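 further: HEK-293T cells carrying an NF-kB luciferase reporter; cells exposed to compound for about 14 hours before viability readout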
[10] = Luminescence Cell-Based Dose Retest to Confirm Inhibitors of Cancer Stem Cells. [Related pubchem assays (depositor defined):AID2717, AID2721]; format: functional; conditions: Homo sapiens
[11] = molecular target: T2, Bcl-2-like protein 10 (Homo sapiens, UniProt Q9HD36); assay: Bcl-B/TR3 peptide binding disruption – biochemical, fluorescence polarization, FITC-TR3 peptide, selectivity assay for Bfl-1 inhibitor project, primary screen (AID 748);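 further: fluorescence polarization from a fluorescein-labelled TR3 peptide binding purified Bcl-B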
T2 sequence (Q9HD36 whole entry): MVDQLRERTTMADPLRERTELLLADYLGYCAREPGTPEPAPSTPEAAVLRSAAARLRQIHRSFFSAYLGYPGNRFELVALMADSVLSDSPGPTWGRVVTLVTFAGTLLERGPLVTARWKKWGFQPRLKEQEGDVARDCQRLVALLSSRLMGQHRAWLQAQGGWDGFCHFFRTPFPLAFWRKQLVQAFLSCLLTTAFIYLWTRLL

[12] = cells
[13] = viability of uninfected HEp-2 cells – cell-based, HTS, cytotoxicity control for RSV inhibitor project, dose response (AID 2410); format: functional; conditions: human respiratory syncytial virus
[14] = molecular target: T3, Corticotropin-releasing factor receptor 2/Corticotropin-releasing factor-binding protein (Homo sapiens, UniProt P24387+Q13324); assay: activators of CRF receptor 2 with binding protein – uHTS hits, confirmation (AID 602473); format: functional; conditions: read-out: EC50_Mean
T3 sequence (Q13324 whole entry): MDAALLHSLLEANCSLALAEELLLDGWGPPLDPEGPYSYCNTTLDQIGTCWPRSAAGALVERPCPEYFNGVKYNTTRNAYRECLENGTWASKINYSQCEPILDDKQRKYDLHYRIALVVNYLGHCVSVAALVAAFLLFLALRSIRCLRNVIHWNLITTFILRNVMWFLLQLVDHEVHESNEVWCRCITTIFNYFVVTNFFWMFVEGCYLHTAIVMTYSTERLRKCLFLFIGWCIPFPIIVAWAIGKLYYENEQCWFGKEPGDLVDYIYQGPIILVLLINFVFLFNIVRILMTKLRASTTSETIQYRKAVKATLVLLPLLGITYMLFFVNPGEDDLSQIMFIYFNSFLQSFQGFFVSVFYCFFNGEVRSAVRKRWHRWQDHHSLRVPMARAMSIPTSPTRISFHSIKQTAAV
T3 sequence (P24387 whole entry): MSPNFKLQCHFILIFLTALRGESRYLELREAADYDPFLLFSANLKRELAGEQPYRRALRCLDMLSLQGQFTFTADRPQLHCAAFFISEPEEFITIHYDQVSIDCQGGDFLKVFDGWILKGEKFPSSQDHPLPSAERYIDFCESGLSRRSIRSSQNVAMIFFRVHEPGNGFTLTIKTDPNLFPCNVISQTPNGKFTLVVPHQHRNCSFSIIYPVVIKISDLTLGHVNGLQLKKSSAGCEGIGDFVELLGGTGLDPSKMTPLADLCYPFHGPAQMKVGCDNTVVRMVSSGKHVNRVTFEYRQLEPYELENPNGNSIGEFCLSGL

[15] = molecular target: Peroxisome proliferator-activated receptor gamma/Nuclear receptor coactivator 1 (Homo sapiens, UniProt P37231); format: functional;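 further: agonist potency as compounds enhance coactivator SRC-1 recruitment to PPARgamma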
Sequence of Peroxisome proliferator-activated receptor gamma/Nuclear receptor coactivator 1 (P37231 whole entry): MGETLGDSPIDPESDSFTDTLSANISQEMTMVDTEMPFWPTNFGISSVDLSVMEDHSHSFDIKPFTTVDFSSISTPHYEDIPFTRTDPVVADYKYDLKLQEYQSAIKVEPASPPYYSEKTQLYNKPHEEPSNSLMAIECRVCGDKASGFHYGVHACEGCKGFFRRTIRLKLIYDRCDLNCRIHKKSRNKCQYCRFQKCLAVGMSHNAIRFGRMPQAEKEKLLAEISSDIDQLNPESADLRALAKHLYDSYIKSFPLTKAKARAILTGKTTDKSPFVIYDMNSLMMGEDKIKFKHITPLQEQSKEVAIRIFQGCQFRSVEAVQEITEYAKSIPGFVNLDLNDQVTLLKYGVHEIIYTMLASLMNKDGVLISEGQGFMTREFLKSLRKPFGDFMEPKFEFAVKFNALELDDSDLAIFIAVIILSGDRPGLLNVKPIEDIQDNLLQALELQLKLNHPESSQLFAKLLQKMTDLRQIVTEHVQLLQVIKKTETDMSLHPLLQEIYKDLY
Sequence of Peroxisome proliferator-activated receptor gamma/Nuclear receptor coactivator 1 (Q15788 whole entry, further chain): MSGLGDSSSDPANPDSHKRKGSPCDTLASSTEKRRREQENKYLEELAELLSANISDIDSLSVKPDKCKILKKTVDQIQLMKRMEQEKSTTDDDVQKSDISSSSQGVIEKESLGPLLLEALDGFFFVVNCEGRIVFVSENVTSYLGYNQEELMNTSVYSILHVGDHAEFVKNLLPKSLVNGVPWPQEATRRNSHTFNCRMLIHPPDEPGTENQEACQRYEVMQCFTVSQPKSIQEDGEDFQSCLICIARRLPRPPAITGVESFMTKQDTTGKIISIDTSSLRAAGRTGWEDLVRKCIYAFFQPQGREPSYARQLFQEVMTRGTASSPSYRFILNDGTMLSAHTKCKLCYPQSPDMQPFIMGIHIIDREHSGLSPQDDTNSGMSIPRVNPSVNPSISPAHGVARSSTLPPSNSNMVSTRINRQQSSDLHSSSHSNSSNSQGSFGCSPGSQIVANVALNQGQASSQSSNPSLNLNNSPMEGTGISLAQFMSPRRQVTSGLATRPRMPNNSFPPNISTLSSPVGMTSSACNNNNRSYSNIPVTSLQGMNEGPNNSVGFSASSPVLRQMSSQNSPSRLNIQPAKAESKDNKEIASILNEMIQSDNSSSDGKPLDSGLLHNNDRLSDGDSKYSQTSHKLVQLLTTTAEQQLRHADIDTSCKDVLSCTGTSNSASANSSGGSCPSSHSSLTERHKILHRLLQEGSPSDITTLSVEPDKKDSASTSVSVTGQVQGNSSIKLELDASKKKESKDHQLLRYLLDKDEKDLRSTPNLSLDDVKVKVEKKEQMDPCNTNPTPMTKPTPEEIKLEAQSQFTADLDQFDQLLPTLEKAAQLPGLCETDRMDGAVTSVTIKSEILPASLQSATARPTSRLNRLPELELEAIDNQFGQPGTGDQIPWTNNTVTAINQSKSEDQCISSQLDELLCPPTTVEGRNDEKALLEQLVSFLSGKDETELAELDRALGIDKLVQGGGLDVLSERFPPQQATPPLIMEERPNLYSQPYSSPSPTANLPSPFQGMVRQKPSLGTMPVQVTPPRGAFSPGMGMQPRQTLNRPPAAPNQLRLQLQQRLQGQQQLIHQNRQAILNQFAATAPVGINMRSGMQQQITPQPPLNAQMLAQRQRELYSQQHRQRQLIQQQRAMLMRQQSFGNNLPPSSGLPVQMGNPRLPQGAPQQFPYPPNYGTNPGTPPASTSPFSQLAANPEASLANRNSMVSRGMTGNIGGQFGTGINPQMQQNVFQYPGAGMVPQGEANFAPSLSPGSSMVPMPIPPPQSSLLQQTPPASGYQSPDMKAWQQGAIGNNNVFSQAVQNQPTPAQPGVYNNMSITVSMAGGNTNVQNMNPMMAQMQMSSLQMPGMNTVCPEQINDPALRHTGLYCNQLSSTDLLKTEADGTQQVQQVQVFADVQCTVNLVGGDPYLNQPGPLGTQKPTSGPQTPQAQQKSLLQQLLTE

[16] = molecular target: Peroxisome proliferator-activated receptor gamma/Nuclear receptor coactivator 3 (Homo sapiens, UniProt P37231); format: functional;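 further: agonist potency for raising coactivator recruitment to the receptor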
[17] = molecular target: T4, Protein skinhead-1 (Caenorhabditis elegans, UniProt P34707); format: functional
T4 sequence (P34707 whole entry): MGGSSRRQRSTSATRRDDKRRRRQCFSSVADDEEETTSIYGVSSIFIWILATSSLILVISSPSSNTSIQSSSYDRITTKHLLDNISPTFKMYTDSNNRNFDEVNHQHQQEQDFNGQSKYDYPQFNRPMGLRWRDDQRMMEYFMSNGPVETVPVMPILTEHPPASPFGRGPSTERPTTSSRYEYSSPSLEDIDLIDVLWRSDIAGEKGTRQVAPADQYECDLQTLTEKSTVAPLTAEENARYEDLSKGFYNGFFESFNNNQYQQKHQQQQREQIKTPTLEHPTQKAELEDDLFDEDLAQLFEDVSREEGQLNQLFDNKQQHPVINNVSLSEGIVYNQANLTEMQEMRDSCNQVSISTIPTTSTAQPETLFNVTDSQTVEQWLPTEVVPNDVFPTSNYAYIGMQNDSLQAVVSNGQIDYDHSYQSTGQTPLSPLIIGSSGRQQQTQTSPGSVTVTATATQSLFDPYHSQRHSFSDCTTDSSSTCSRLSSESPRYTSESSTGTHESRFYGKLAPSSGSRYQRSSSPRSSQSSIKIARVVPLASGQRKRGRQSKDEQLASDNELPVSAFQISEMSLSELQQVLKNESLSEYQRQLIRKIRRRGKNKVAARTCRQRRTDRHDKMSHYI

[18] = molecular target: Peroxisome proliferator-activated receptor gamma/Nuclear receptor coactivator 2 (Homo sapiens, UniProt P37231); format: functional;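 further: agonist potency for raising coactivator recruitment to the receptor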
Sequence of Peroxisome proliferator-activated receptor gamma/Nuclear receptor coactivator 2 (P37231 whole entry): as the sequence (P37231 whole entry) above
Sequence of Peroxisome proliferator-activated receptor gamma/Nuclear receptor coactivator 2 (Q15596 whole entry, further chain): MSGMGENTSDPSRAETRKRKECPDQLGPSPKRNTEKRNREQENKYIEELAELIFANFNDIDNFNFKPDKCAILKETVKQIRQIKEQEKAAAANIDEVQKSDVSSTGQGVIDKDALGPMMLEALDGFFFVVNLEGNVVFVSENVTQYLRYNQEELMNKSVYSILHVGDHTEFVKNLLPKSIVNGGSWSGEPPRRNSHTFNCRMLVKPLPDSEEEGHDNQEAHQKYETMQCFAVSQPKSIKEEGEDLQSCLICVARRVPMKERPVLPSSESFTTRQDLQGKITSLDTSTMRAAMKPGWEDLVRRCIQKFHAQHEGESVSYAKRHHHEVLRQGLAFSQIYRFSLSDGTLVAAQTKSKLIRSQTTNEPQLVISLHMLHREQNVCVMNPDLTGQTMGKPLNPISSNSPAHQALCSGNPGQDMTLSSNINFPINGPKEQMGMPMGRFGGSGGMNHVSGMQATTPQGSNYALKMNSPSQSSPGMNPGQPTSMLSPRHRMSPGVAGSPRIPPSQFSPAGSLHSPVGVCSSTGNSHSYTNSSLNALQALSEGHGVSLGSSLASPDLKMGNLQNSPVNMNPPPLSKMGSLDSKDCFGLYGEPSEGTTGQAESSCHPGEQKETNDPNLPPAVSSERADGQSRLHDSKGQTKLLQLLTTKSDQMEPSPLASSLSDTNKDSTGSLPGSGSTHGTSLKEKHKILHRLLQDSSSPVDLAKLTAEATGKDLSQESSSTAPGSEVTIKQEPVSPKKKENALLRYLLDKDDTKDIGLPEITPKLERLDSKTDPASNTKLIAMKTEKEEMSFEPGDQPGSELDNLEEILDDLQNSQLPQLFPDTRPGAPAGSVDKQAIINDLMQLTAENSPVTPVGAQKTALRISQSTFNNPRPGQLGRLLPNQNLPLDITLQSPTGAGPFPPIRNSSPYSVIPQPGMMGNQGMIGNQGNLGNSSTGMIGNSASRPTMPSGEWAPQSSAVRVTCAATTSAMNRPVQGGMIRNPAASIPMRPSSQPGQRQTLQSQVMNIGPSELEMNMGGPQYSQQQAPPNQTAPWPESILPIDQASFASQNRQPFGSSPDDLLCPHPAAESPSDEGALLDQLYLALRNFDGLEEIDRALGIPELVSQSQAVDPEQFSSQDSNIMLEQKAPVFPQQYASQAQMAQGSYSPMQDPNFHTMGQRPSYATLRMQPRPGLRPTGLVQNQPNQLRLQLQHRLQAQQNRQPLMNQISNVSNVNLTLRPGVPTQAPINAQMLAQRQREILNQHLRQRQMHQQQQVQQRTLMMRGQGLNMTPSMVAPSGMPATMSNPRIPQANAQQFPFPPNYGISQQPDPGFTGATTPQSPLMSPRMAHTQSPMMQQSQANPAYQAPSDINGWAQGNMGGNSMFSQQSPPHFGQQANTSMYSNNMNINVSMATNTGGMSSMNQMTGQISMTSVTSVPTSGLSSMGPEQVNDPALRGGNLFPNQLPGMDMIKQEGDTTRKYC

[19] = molecular target: T5, Neuropeptide Y receptor type 1 (Homo sapiens, UniProt P25929); assay: Fluorescence-based counterscreen for agonists of NPY-Y2: cell-based high-throughput dose response assay for agonists of NPY-Y1.; format: functional
T5 sequence (P25929 whole entry): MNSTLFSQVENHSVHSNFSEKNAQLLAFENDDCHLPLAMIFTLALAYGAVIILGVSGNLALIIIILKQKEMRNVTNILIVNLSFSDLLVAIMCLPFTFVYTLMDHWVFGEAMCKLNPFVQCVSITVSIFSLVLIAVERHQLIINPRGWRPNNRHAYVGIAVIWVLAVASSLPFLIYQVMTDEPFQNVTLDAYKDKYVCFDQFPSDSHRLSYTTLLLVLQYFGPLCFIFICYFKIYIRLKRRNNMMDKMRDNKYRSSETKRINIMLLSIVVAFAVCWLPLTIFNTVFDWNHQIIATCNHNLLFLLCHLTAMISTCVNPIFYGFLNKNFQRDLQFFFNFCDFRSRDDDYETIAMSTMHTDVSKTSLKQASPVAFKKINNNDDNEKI

[20] = tested on: HEK293; assay: Fluorescence-based counterscreen for potentiators or agonists of NPY-Y2: cell-based high-throughput dose response assay to identify inhibitors of cyclic nucleotide gated ion channel (CNGC) activity. In this assay, the parental HEK293 cell line transfected with a cyclic-nucleotide gated ion channel (CNGC)-based cAMP sensor is used to measure inhibition of isoproterenol-induced CNGC activity by test compound.; format: functional; conditions: Homo sapiens
[21] = molecular target: T6, Neuropeptide Y receptor type 2 (Homo sapiens, UniProt P49146); assay: Fluorescence-based cell-based high-throughput dose response assay for agonists of NPY-Y2. [Related pubchem assays: 1703 (Screening assay (CNGC inhibitors).), 1359 (Screening assay (NPY-Y2 potentiators or agonists).), 1304 (Screening assay (NPY-Y1 potentiators or agonists).), 1710 (Screening assay (NPY-Y2 agonists).), 1791 (Summary AID.)]; format: functional
T6 sequence (P49146 whole entry): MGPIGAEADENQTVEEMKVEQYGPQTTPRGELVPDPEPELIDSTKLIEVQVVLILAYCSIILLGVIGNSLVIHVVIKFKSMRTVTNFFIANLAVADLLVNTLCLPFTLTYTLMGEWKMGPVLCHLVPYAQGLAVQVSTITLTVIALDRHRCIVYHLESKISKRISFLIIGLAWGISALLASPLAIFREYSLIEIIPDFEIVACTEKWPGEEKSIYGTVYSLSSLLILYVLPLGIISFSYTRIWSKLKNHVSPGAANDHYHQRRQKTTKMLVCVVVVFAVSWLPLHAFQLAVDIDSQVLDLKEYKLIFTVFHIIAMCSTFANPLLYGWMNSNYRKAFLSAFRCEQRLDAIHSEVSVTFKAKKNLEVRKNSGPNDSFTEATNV

With `COc1ccc(C(=O)Nn2c(SCC(=O)NCc3ccco3)nc3ccccc3c2=O)cc1` the EC50 [1] was 8.3 µM (active), the EC50 [2] was > 50 µM (not active) and the EC50 [3] was 8.39 µM (active). The IC50 [4] was > 20 µM (inactive), the EC50 [5] was 8.65 µM (inconclusive) and the EC50 [6] was 0.44 µM (active). The AC50 [7] was 2.48 µM (active).
For `CCC(C(=O)Nc1ccc(O)c(C(=O)O)c1)c1ccccc1` (stereo not given), the IC50 [8] was > 100 µM (not active).
In the case of `Cc1cc(C)cc(NC(=O)Nc2ccc(NC(=O)c3ccccc3O)cc2)c1`, the IC50 [9] is reported as > 80 µM (inactive) and the AC50 [10] is reported as 0.167 µM (active).
In the case of `O=C(COC(=O)Cc1ccccc1)Nc1ncc(Cl)cc1Cl`, the IC50 [11] is reported as 91.5 µM (inactive).
For `CCOC(=O)c1ccc(NC(=S)N2CCSC2c2ccc(Br)cc2)cc1` (stereo not given), the IC50 [12] was 11 µM (active), the CC50 [13] was 14 µM (active) and the EC50 [14] was 4.38 µM (active).
For `CSC1=NC(C)(C)CC2(CC(c3ccccc3)Oc3cc(O)ccc32)N1` (stereo not given), the EC50 [15] was > 79.4 µM (not active), the EC50 [16] was > 79.4 µM (not active) and the IC50 [17] was > 100 µM (inactive). The EC50 [18] was > 79.4 µM (not active).
For `c1coc(C2Nc3cccc4cccc(c34)N2)c1`, the EC50 [1] was > 120 µM (not active), the IC50 [11] was 42.8 µM (active) and the EC50 [3] was > 120 µM (not active). For the same molecule, the EC50 [5] was > 120 µM (not active).
For `O=C(Nc1ccccc1Cl)c1c(F)c(F)c(F)c(F)c1F`, the EC50 [19] was > 35.4 µM (not active), the EC50 [20] was > 35.4 µM (not active) and the EC50 [21] was > 35.4 µM (not active).
